In ChEMBL document CHEMBL1201862, “PubChem BioAssay data set” (2004):
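These data come from cells grown in 96-well plates and exposed to compound for 48 hours at five concentrations. Abbreviation: GI50, concentration required for 50% inhibition of growth.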 Activity calls are given as the source filed them. Rule as the data show it: active = GI50 up to about 1.1 µM and inactive = higher.

Experiments:
Experiment in all cases: inhibition of tumour cell growth, NCI panel, 48 h
[1] = tested on: MDA-N
[2] = tested on: NCI-H522
[3] = tested on: LOX IMVI
[4] = tested on: UO-31
[5] = tested on: 786-0
[6] = tested on: MDA-MB-435
[7] = tested on: UACC-257
[8] = tested on: M14
[9] = tested on: SF-295
[10] = tested on: DU-145
[11] = tested on: KM12
[12] = tested on: TK-10
[13] = tested on: COLO 205
[14] = tested on: OVCAR-8
[15] = tested on: CAKI-1
[16] = tested on: SK-MEL-28
[17] = tested on: HCT-15
[18] = tested on: NCI-H226
[19] = tested on: OVCAR-3
[20] = tested on: RPMI-8226

SMILES: Cc1ccc(OCC2=NN3C(=O)/C(=C\c4ccc([N+](=O)[O-])o4)SC3N2)cc1 (stereo not given)
- GI50 [1]: 4.3 µM (inactive)
- GI50 [2]: 1.82 µM (inactive)
- GI50 [3]: 3.66 µM (inactive)
- GI50 [4]: 15.4 µM (inactive)
- GI50 [5]: 10.2 µM (inactive)
- GI50 [6]: 5.47 µM (inactive)
- GI50 [7]: 12.8 µM (inactive)
- GI50 [8]: 8.47 µM (inactive)
- GI50 [9]: 14.8 µM (inactive)
- GI50 [10]: 5.68 µM (inactive)
- GI50 [11]: 15.8 µM (inactive)
- GI50 [12]: 16.5 µM (inactive)
- GI50 [13]: 3.19 µM (inactive)
- GI50 [14]: 3.66 µM (inactive)
- GI50 [15]: 14.6 µM (inactive)
- GI50 [16]: 12.7 µM (inactive)
- GI50 [17]: 2.42 µM
- GI50 [18]: 15.4 µM (inactive)
- GI50 [19]: 1.95 µM (inactive)
- GI50 [20]: 2.16 µM (inactive)

SMILES: Cc1c(Cl)c(S(N)(=O)=O)cc2c1N=CNS2(=O)=O
- GI50 [1]: > 100 µM (inactive)
- GI50 [2]: > 100 µM (inactive)
- GI50 [3]: > 100 µM (inactive)
- GI50 [4]: > 100 µM (inactive)
- GI50 [5]: > 100 µM (inactive)
- GI50 [6]: > 100 µM (inactive)
- GI50 [7]: > 100 µM (inactive)
- GI50 [8]: > 100 µM (inactive)
- GI50 [9]: > 100 µM (inactive)
- GI50 [10]: > 100 µM (inactive)
- GI50 [11]: > 100 µM (inactive)
- GI50 [12]: > 100 µM (inactive)
- GI50 [13]: > 100 µM (inactive)
- GI50 [14]: > 100 µM (inactive)
- GI50 [15]: > 100 µM (inactive)
- GI50 [16]: > 100 µM (inactive)
- GI50 [17]: > 100 µM
- GI50 [18]: > 100 µM (inactive)
- GI50 [19]: > 100 µM (inactive)
- GI50 [20]: > 100 µM (inactive)

SMILES: O=P1(N(CCCl)CCCl)Oc2c(Cl)cc(Cl)c(Cl)c2Cc2c(Cl)c(Cl)cc(Cl)c2O1
- GI50 [1]: 67.8 µM (inactive)
- GI50 [2]: 31 µM (inactive)
- GI50 [3]: 39.8 µM (inactive)
- GI50 [4]: 48.4 µM (inactive)
- GI50 [5]: 90.4 µM (inactive)
- GI50 [6]: 60.5 µM (inactive)
- GI50 [7]: 59.7 µM (inactive)
- GI50 [8]: 75.3 µM (inactive)
- GI50 [9]: 22.7 µM (inactive)
- GI50 [10]: 71.1 µM (inactive)
- GI50 [11]: 42 µM (inactive)
- GI50 [12]: 25 µM (inactive)
- GI50 [13]: 22.5 µM (inactive)
- GI50 [14]: 55.1 µM (inactive)
- GI50 [15]: 64.9 µM (inactive)
- GI50 [16]: > 100 µM (inactive)
- GI50 [17]: 48 µM
- GI50 [18]: 26.9 µM (inactive)
- GI50 [19]: 45.2 µM (inactive)
- GI50 [20]: 64.3 µM (inactive)

SMILES: CN(C)c1ccc(/C=C/c2cc(-c3ccccc3)[n+](C)n2-c2ccccc2)cc1
- GI50 [1]: 0.114 µM (active)
- GI50 [2]: < 0.01 µM (active)
- GI50 [3]: 0.299 µM (active)
- GI50 [4]: 1.86 µM (inactive)
- GI50 [5]: 0.43 µM (active)
- GI50 [6]: 0.158 µM (active)
- GI50 [7]: 0.122 µM (active)
- GI50 [8]: 0.617 µM (active)
- GI50 [9]: 0.614 µM (active)
- GI50 [10]: 0.215 µM (active)
- GI50 [11]: 0.0635 µM (active)
- GI50 [12]: 1.7 µM (inactive)
- GI50 [13]: 0.094 µM (active)
- GI50 [14]: 0.207 µM (active)
- GI50 [15]: 1.91 µM (inactive)
- GI50 [16]: 0.597 µM (active)
- GI50 [17]: 3.61 µM
- GI50 [18]: 0.138 µM (active)
- GI50 [19]: 0.234 µM (active)
- GI50 [20]: 0.0221 µM (active)

SMILES: COc1ccc2nc3c([N+](=O)[O-])ccc(NCCCN(C)C)c3c(N)c2c1
- GI50 [1]: 1.82 µM (inactive)
- GI50 [2]: 0.474 µM (active)
- GI50 [3]: 1.59 µM (inactive)
- GI50 [4]: 2.14 µM (inactive)
- GI50 [5]: 1.22 µM (inactive)
- GI50 [6]: 1.77 µM (inactive)
- GI50 [7]: > 10 µM (inactive)
- GI50 [8]: 1.9 µM (inactive)
- GI50 [9]: 1.37 µM (inactive)
- GI50 [10]: 1.67 µM (inactive)
- GI50 [11]: 1.51 µM (inactive)
- GI50 [12]: 1.62 µM (inactive)
- GI50 [13]: 0.764 µM (active)
- GI50 [14]: 1.75 µM (inactive)
- GI50 [15]: 1.81 µM (inactive)
- GI50 [16]: 1.62 µM (inactive)
- GI50 [17]: 1.3 µM
- GI50 [18]: 1.99 µM (inactive)
- GI50 [19]: 1.49 µM (inactive)
- GI50 [20]: 1.15 µM (inactive)

SMILES: CC(O)c1cc2c(s1)C(=O)c1c(C(C)O)csc1C2=O (stereo not given)
- GI50 [1]: 0.0226 µM (active)
- GI50 [2]: 0.305 µM (active)
- GI50 [3]: 0.075 µM (active)
- GI50 [4]: 0.316 µM (active)
- GI50 [5]: 0.392 µM (active)
- GI50 [6]: 0.0252 µM (active)
- GI50 [7]: 0.0803 µM (active)
- GI50 [8]: 0.126 µM (active)
- GI50 [9]: 0.123 µM (active)
- GI50 [10]: 0.119 µM (active)
- GI50 [11]: 0.249 µM (active)
- GI50 [12]: 0.544 µM (active)
- GI50 [13]: 1.28 µM (inactive)
- GI50 [14]: 0.22 µM (active)
- GI50 [15]: 0.382 µM (active)
- GI50 [16]: 0.185 µM (active)
- GI50 [17]: 0.133 µM
- GI50 [18]: 0.264 µM (active)
- GI50 [19]: 0.0342 µM (active)
- GI50 [20]: 0.15 µM (active)

SMILES: C[N+]1([O-])[C@H]2CC(OC(=O)[C@H](CO)c3ccccc3)C[C@H]1[C@H]1O[C@H]12 (stereo not given in full)
- GI50 [1]: > 100 µM (inactive)
- GI50 [2]: > 100 µM (inactive)
- GI50 [3]: > 100 µM (inactive)
- GI50 [4]: > 100 µM (inactive)
- GI50 [5]: > 100 µM (inactive)
- GI50 [6]: > 100 µM (inactive)
- GI50 [7]: > 100 µM (inactive)
- GI50 [8]: > 100 µM (inactive)
- GI50 [9]: > 100 µM (inactive)
- GI50 [10]: > 100 µM (inactive)
- GI50 [11]: > 100 µM (inactive)
- GI50 [12]: > 100 µM (inactive)
- GI50 [13]: > 100 µM (inactive)
- GI50 [14]: > 100 µM (inactive)
- GI50 [15]: > 100 µM (inactive)
- GI50 [16]: > 100 µM (inactive)
- GI50 [17]: > 100 µM
- GI50 [18]: > 100 µM (inactive)
- GI50 [19]: > 100 µM (inactive)
- GI50 [20]: > 100 µM (inactive)

SMILES: C#Cc1cccc(N2C(=O)CCC2=O)c1
- GI50 [1]: 14.2 µM (inactive)
- GI50 [2]: 4.17 µM (inactive)
- GI50 [3]: 16.8 µM (inactive)
- GI50 [4]: 17.7 µM (inactive)
- GI50 [5]: 18 µM (inactive)
- GI50 [6]: 17.3 µM (inactive)
- GI50 [7]: 15.6 µM (inactive)
- GI50 [8]: 7.62 µM (inactive)
- GI50 [9]: 15.6 µM (inactive)
- GI50 [10]: 14.4 µM (inactive)
- GI50 [11]: 13.6 µM (inactive)
- GI50 [12]: 16.2 µM (inactive)
- GI50 [13]: 6.73 µM (inactive)
- GI50 [14]: 18.5 µM (inactive)
- GI50 [15]: 13.6 µM (inactive)
- GI50 [16]: 18.1 µM (inactive)
- GI50 [17]: 22.1 µM
- GI50 [18]: 17.5 µM (inactive)
- GI50 [19]: 18.9 µM (inactive)
- GI50 [20]: 2.49 µM (inactive)

SMILES: CC(O)c1cc2c(s1)C(=O)c1ccsc1C2=O (stereo not given)
- GI50 [1]: 0.0139 µM (active)
- GI50 [2]: 0.117 µM (active)
- GI50 [3]: 0.0125 µM (active)
- GI50 [4]: 0.212 µM (active)
- GI50 [5]: 0.665 µM (active)
- GI50 [6]: < 0.01 µM (active)
- GI50 [7]: 0.0167 µM (active)
- GI50 [8]: 0.0593 µM (active)
- GI50 [9]: 0.0467 µM (active)
- GI50 [10]: 0.0489 µM (active)
- GI50 [11]: 0.508 µM (active)
- GI50 [12]: 0.461 µM (active)
- GI50 [13]: 1.77 µM (inactive)
- GI50 [14]: 0.22 µM (active)
- GI50 [15]: 0.695 µM (active)
- GI50 [16]: 0.0216 µM (active)
- GI50 [17]: 0.0409 µM
- GI50 [18]: 0.48 µM (active)
- GI50 [19]: 0.0522 µM (active)
- GI50 [20]: 0.123 µM (active)

SMILES: N#CC1(Nc2ccc(-c3ccc(NC4(C#N)CCCC4)cc3)cc2)CCCC1
- GI50 [1]: > 100 µM (inactive)
- GI50 [2]: > 100 µM (inactive)
- GI50 [3]: > 100 µM (inactive)
- GI50 [4]: > 100 µM (inactive)
- GI50 [5]: > 100 µM (inactive)
- GI50 [6]: > 100 µM (inactive)
- GI50 [7]: > 100 µM (inactive)
- GI50 [8]: > 100 µM (inactive)
- GI50 [9]: > 100 µM (inactive)
- GI50 [10]: > 100 µM (inactive)
- GI50 [11]: > 100 µM (inactive)
- GI50 [12]: > 100 µM (inactive)
- GI50 [13]: > 100 µM (inactive)
- GI50 [14]: > 100 µM (inactive)
- GI50 [15]: > 100 µM (inactive)
- GI50 [16]: > 100 µM (inactive)
- GI50 [17]: > 100 µM
- GI50 [18]: > 100 µM (inactive)
- GI50 [19]: > 100 µM (inactive)
- GI50 [20]: > 100 µM (inactive)
